In general, inhibition refers to the change of the read-out against control, counted positive when it falls.

The test can be described thus: Antiproliferative activity against VEGF-stimulated HUVEC cells assessed as reduction in cell viability at 0.5 nM preincubated for 1 hr followed by addition of VEGF measured after 72 hrs by MTT assay. Type of test: functional. The note with it: Homo sapiens. Background: Tetrazolium assays rely on reduction of a dye to a coloured formazan, in cell work by metabolically active cells.
In the case of `COc1ccc(C(N)=O)cc1NC(=O)c1ccccc1Sc1ccc2c(/C=C/c3ccccn3)n[nH]c2c1`, the inhibition at 0.0005 µM was found to be 5%.
In the case of `Cc1ccc(C(N)=O)cc1NC(=O)c1ccccc1Sc1ccc2c(/C=C/c3ccccn3)n[nH]c2c1` it was 15%; in that of `O=C(NCc1cc(F)cc(F)c1F)c1ccccc1Sc1ccc2c(/C=C/c3ccccn3)n[nH]c2c1`, 24%.
For `O=C(N[C@H](CO)[C@H](O)c1ccccc1)c1ccccc1Sc1ccc2c(/C=C/c3ccccn3)n[nH]c2c1`, the inhibition at 0.0005 µM was -1%.
For `Cc1cc(C)cc(NC(=O)c2ccccc2Sc2ccc3c(/C=C/c4ccccn4)n[nH]c3c2)c1`, the inhibition at 0.0005 µM is -4%.
Regarding `C[C@@H](NC(=O)c1ccccc1Sc1ccc2c(/C=C/c3ccccn3)n[nH]c2c1)c1ccccc1`, the inhibition at 0.0005 µM was determined as 9%.
In the case of `CCCCCNC(=O)c1ccccc1Nc1ccc2c(/C=C/c3ccccn3)n[nH]c2c1`, the inhibition at 0.0005 µM stood at 49%.
In the case of `COc1ccc(CNC(=O)c2ccccc2Nc2ccc3c(/C=C/c4ccccn4)n[nH]c3c2)cc1` it was 63%; in that of `C#CCNC(=O)c1ccccc1Nc1ccc2c(/C=C/c3ccccn3)n[nH]c2c1`, 95%.
Take `CC(C)Oc1ccc(NC(=O)c2ccccc2Sc2ccc3c(/C=C/c4ccccn4)n[nH]c3c2)cc1`: the inhibition at 0.0005 µM is -9%.
On to `C[C@@H](CNC(=O)c1ccccc1Sc1ccc2c(/C=C/c3ccccn3)n[nH]c2c1)c1ccccc1`, for which the inhibition at 0.0005 µM is 3%.
Take `CC(C)(NC(=O)c1ccccc1Sc1ccc2c(/C=C/c3ccccn3)n[nH]c2c1)c1ccccc1`: the inhibition at 0.0005 µM was -25%.
Take `O=C(N[C@H](CO)Cc1ccccc1)c1ccccc1Sc1ccc2c(/C=C/c3ccccn3)n[nH]c2c1`: the inhibition at 0.0005 µM amounted to 1%.
With `COc1ccc(NC(=O)c2ccccc2Sc2ccc3c(/C=C/c4ccccn4)n[nH]c3c2)cc1O`, the inhibition at 0.0005 µM is -19%.
With `Cc1nc(O)cc(NC(=O)c2ccccc2Sc2ccc3c(/C=C/c4ccccn4)n[nH]c3c2)n1`, the inhibition at 0.0005 µM was 3%.
In the case of `O=C(NC[C@@H]1CCCO1)c1ccccc1Sc1ccc2c(/C=C/c3ccccn3)n[nH]c2c1` it was -8%.
As for `CC(C)(C)c1cccc(NC(=O)c2ccccc2Sc2ccc3c(/C=C/c4ccccn4)n[nH]c3c2)c1`, the inhibition at 0.0005 µM was -5%.
Consider `C[N+](C)(C)NC(=O)c1ccccc1Nc1ccc2c(/C=C/c3ccccn3)n[nH]c2c1`, for which the inhibition at 0.0005 µM was determined as 8%.
Turning to `O=C(NCc1ccc2c(c1)OCC2)c1ccccc1Sc1ccc2c(/C=C/c3ccccn3)n[nH]c2c1`, the inhibition at 0.0005 µM amounted to 14%.
In the case of `CCCOCCNC(=O)c1ccccc1Nc1ccc2c(/C=C/c3ccccn3)n[nH]c2c1`, the inhibition at 0.0005 µM is 28%.
With `O=C(Nc1cccc(-c2nnco2)c1)c1ccccc1Sc1ccc2c(/C=C/c3ccccn3)n[nH]c2c1`, the inhibition at 0.0005 µM was -23%.
For `CNc1ccccc1NC(=O)c1ccccc1Sc1ccc2c(/C=C/c3ccccn3)n[nH]c2c1`, the inhibition at 0.0005 µM was -2%.
Regarding `O=C(Nc1cccc2ccc(O)cc12)c1ccccc1Sc1ccc2c(/C=C/c3ccccn3)n[nH]c2c1`, the inhibition at 0.0005 µM is -6%.
With `O=C(Nc1cc(F)cc(F)c1)c1ccccc1Sc1ccc2c(/C=C/c3ccccn3)n[nH]c2c1`, the inhibition at 0.0005 µM was -36%.
In the case of `O=C(NNC(=O)c1ccccc1Nc1ccc2c(/C=C/c3ccccn3)n[nH]c2c1)c1ccccn1`, the inhibition at 0.0005 µM amounted to 69%.
Turning to `COc1cccc(OC)c1NC(=O)c1ccccc1Sc1ccc2c(/C=C/c3ccccn3)n[nH]c2c1`, the inhibition at 0.0005 µM is -57%.
In the case of `C[C@H](NC(=O)c1ccccc1Sc1ccc2c(/C=C/c3ccccn3)n[nH]c2c1)[C@H](O)c1ccccc1` it was 9%; in that of `O=C(N[C@H](CO)[C@@H](O)c1ccccc1)c1ccccc1Sc1ccc2c(/C=C/c3ccccn3)n[nH]c2c1`, 10%.
On to `CCC(C)(C)NC(=O)c1ccccc1Sc1ccc2c(/C=C/c3ccccn3)n[nH]c2c1`, for which the inhibition at 0.0005 µM was -29%.
Take `COc1sc(NC(=O)c2ccccc2Sc2ccc3c(/C=C/c4ccccn4)n[nH]c3c2)nc1C`: the inhibition at 0.0005 µM is -2%.
As for `O=C(Nc1cccc2c1CCCC2)c1ccccc1Sc1ccc2c(/C=C/c3ccccn3)n[nH]c2c1`, the inhibition at 0.0005 µM was -17%.
In the case of `CC(=O)Nc1cccc(NC(=O)c2ccccc2Sc2ccc3c(/C=C/c4ccccn4)n[nH]c3c2)c1` it was -29%; in that of `O=C(N[C@H]1CC2CCC1C2)c1ccccc1Sc1ccc2c(/C=C/c3ccccn3)n[nH]c2c1` (some centres undefined), -9%; in that of `Cc1ccc(F)c(NC(=O)c2ccccc2Sc2ccc3c(/C=C/c4ccccn4)n[nH]c3c2)c1`, -1%.
Turning to `C[C@H](NC(=O)c1ccccc1Sc1ccc2c(/C=C/c3ccccn3)n[nH]c2c1)c1ccccc1`, the inhibition at 0.0005 µM is -3%.
Regarding `Cc1cccc(CNC(=O)c2ccccc2Nc2ccc3c(/C=C/c4ccccn4)n[nH]c3c2)c1`, the inhibition at 0.0005 µM was determined as 19%.
As for `Cc1ccc(NC(=O)c2ccccc2Sc2ccc3c(/C=C/c4ccccn4)n[nH]c3c2)cc1`, the figure is -15%; as for `O=C(Nc1ccccc1Cl)c1ccccc1Sc1ccc2c(/C=C/c3ccccn3)n[nH]c2c1`, -2%; as for `COc1ccc(NC(=O)c2ccccc2Sc2ccc3c(/C=C/c4ccccn4)n[nH]c3c2)cc1`, 4%.
Take `CCc1cccc(C)c1NC(=O)c1ccccc1Sc1ccc2c(/C=C/c3ccccn3)n[nH]c2c1`: the inhibition at 0.0005 µM was -4%.
Turning to `C[C@H](NC(=O)c1ccccc1Sc1ccc2c(/C=C/c3ccccn3)n[nH]c2c1)C1CCCCC1`, the inhibition at 0.0005 µM was -12%.
As for `C[C@@H](NC(=O)c1ccccc1Sc1ccc2c(/C=C/c3ccccn3)n[nH]c2c1)c1ccc2ccccc2c1`, the figure is 1%; as for `CCOC(=O)c1cccc(NC(=O)c2ccccc2Sc2ccc3c(/C=C/c4ccccn4)n[nH]c3c2)c1`, 7%; as for `CC(C)(C)CNC(=O)c1ccccc1Nc1ccc2c(/C=C/c3ccccn3)n[nH]c2c1`, 5 to 19%.
In the case of `COc1ccccc1CNC(=O)c1ccccc1Nc1ccc2c(/C=C/c3ccccn3)n[nH]c2c1`, the inhibition at 0.0005 µM was 36%.
`Cc1c(Cl)cccc1NC(=O)c1ccccc1Sc1ccc2c(/C=C/c3ccccn3)n[nH]c2c1`: the inhibition at 0.0005 µM was 9%.
For the compound `O=C(Nc1c(F)cccc1Cl)c1ccccc1Sc1ccc2c(/C=C/c3ccccn3)n[nH]c2c1`, the inhibition at 0.0005 µM was determined as 12%.
As for `O=C(Nc1nccnn1)c1ccccc1Sc1ccc2c(/C=C/c3ccccn3)n[nH]c2c1`, the figure is 3%; as for `O=C(NCCCc1ccccc1)c1ccccc1Nc1ccc2c(/C=C/c3ccccn3)n[nH]c2c1`, 50%; as for `O=C(N[C@@H](CO)c1ccccc1)c1ccccc1Sc1ccc2c(/C=C/c3ccccn3)n[nH]c2c1`, -17%.
As to `CNC(=O)c1cccc(NC(=O)c2ccccc2Sc2ccc3c(/C=C/c4ccccn4)n[nH]c3c2)c1`, the inhibition at 0.0005 µM is -11%.
Consider `O=C(Nc1cnc2ccccc2c1)c1ccccc1Sc1ccc2c(/C=C/c3ccccn3)n[nH]c2c1`, for which the inhibition at 0.0005 µM was -8%.
For `Cn1c(NC(=O)c2ccccc2Sc2ccc3c(/C=C/c4ccccn4)n[nH]c3c2)nc2ccccc21`, the inhibition at 0.0005 µM was -21%.
As to `O=C(NCc1ccco1)c1ccccc1Nc1ccc2c(/C=C/c3ccccn3)n[nH]c2c1`, the inhibition at 0.0005 µM worked out at 70%.

The record behind these values is ChEMBL document CHEMBL3880421, “Indazole compounds and pharmaceutical compositions for inhibiting protein kinases, and methods for their use” (2003).
